Results from patent publication US7879835B2 (Korea Research Institute of Chemical Technology, priority 2004, dated 2011).
Each block holds one compound with its values, some of them ahead of it.

Experiments:
[1] = tested on: osteoclast (TRAP-positive multinuclear cell) formation; experiment: Inhibitory effect on osteoclast formation (TRAP staining); type: cell-based, mice; details: compared to control; for inhibition at 0.1 µM / inhibition at 0.3 µM / inhibition at 1 µM / inhibition at 3 µM: Mus musculus, Osteoclast, read-out: Osteoclast formation inhibitory effects (%); for inhibition at 0.1 µM: 0.1 μM (Table 4b); for inhibition at 0.3 µM: 0.3 μM (Table 4b); for inhibition at 1 µM: 1 μM (Table 4b); for inhibition at 3 µM: 3 μM (Table 4b); for Osteoclast formation inhibitory effects (%): 8 days culture with M-CSF and RANKL
Experimental: The inhibitory activities of the alpha-arylmethoxyacrylate derivatives prepared in the above Examples on the proliferation of osteoclasts were examined as follows.
First, a bone marrow sample containing osteoclast pregenitor cells was isolated as follows. After sacrificing 7 to 9 week-old female mice by cervical dislocation, femur and tibia were excised aseptically while removing soft tissues attached thereto, After cutting both ends of the long bones, 1 ml of an enzyme solution containing 0.1% collagenase (Gibco), 0.05% trypsin and 0.5 mM EDTA (Gibco) was injected into the bone marrow cavity at one end using a syringe with a 26-gauge needle, and the bone marrow was then collected. After stirring the recovered bone marrow for 30 min, the precipitated bone marrow cells were collected, and cultured in α-minimum essential medium (α-MEM) supplemented with 10% FBS for 24 hrs. Then, non-adherent cells, which are osteoclast pregenitors, were aliquoted onto a culture plate at a density of 2×10^5 cells per well, and cultured for 8 days in α-MEM supplemented with 20 ng/ml of macrophage-colony stimulating factor (M-CSF, Peprotech, USA), 30 ng/ml RANKL (Peprotech, USA), and 0.3, 1.0 or 3 μM of the compounds of the Examples. Control cells were cultured at the same condition except not adding the compounds of the Examples.
After cell culture for 8 days, the adherent cells were washed with PBS and fixed with citrate-acetate-formaldehyde for 5 min. The fixed cells were incubated at 37° C. for 1 hr in acetate buffer (pH 5.0) containing naphthol AS-BI phosphate, fast Garnet GBC solution and 7 mM tartrate buffer (pH 5.0) to conduct TRAP (tartrate-resistant acid phosphatase) staining.

MG-63 cells = experiment: Cytotoxicity test against osteoblast (MTT); type: cell-based, human
Experimental: (§1) In order examine the toxicities of the compounds of the Examples against osteoclast pregenitors, pregenitor cells were aliquotted onto a 96-well microplate at a density of 2×10^5 cells per well, treated with 2, 4 and 8 μM of the test compounds, respectively, and cultured for 48 hrs in α-MEM supplemented with 20 ng/ml of M-CSF (Peprotech, USA) using 37° C. incubator (5% CO2). At 3 hrs before the culture was finished, 50 μl of MTT (3-(4,5-dimethylthiazol-2-yl)-2,5-diphenyltetrazolium bromide) solution (50 μg/ml) was added to each well. Upon completion of the cell culture, the supernatant was removed, and the precipitated dye was reacted with 100 μl of isopropanol/0.04 N HCl at room temperature for 30 min to dissolve it. The absorbances of the wells were measured at 550 nm, and the relative absorbance of each well relative to that of the control (set as 100) is shown in Table 6.
In order to examine the toxicity of the compounds of the Examples against osteoblasts, human osteosarcoma-derived cell line, MG-63 (ATCC No. CRL-1427) cells were treated with 0.1, 0.3, 1.0 and 3.0 μM of the compounds of the Examples, and cultured in DMEM supplemented with 10% FBS (fetal bovine serum).

[2] = In vitro pharmacokinetics: metabolic stability in liver microsome; type: in vitro ADME; details: human liver microsome 1 mg/ml, 20 μM compound; for half-life at 20 µM: liver microsomes
Experimental: Metabolic stabilities of the compounds of the Examples were examined by employing microsome samples prepared from the human liver.
Each 20 μM of the compounds were reacted with 1 mg/ml of liver microsome and the half-lives and one-hour stabilities of the compounds were determined.

osteoclasts = experiment: Inhibitory effect on resorption activity of osteoclast (resorption pit area on calcium phosphate-coated plate); type: cell-based, mice; details: compared to control
Experimental: After finishing culture, the plate was washed with distilled water, and 50 μl/well of 5% sodium hypochlorite was added to the plate. The plate was let alone for 5 min, washed again with distilled water to remove the adherent cells, and dried at room temperature. Then, the area of formed resorption pits was calculated by means of Image Pro Plus software (Media Cybernetics Ver. 3.0).

[3] = tested on: osteoclast pregenitor cells; experiment: Cytotoxicity against osteoclast pregenitor (MTT); type: cell-based, mice; details: 48 hrs, absorbance at 550 nm
Experimental: as §1

[4] = In vivo pharmacokinetics using female mice (serum concentration, HPLC); details: I.V.
Experimental: Female mice each weighing […] were divided into groups of 5 mice each. The mice were anesthetized with ether, catheterized in their femoral artery and vein, respectively, and administered with 0.5 mg/kg body weight of compounds 234 and 274, and 5 mg/kg body weight of compounds 388, 404 and 415, respectively, via intravenous injection. Alternatively, 15 mg/kg body weight of compound 274 and 10 mg/kg body weight of compound 234 were orally administered to the mice.
At 0, 5, 10, 15 and 30 minutes and 1, 2, 4, 6, 9 and 12 hours after the intravenous injection, or at 0, 10, 20 and 40 minutes and 1, 2, 4, 6, 9 and 12 hours after the oral administration, 0.3 ml blood samples were taken from the mice through femoral artery. The blood samples were kept on an ice bath for 30 minutes and centrifuged at 3,000 rpm for 10 minutes to obtain a supernatant (serum). The supernatant samples were stored at −20° C.
Standard solution: Compounds 234, 274, 388, 404 and 415 were respectively dissolved in methanol to a concentration of 1 mg/ml to obtain stock solutions. The stock solutions were diluted with methanol to obtain standard solutions having concentrations of 40, 20, 10, 2, 1, 0.5, 0.2, 0.05 and 0.02 μg/ml, respectively.
Standard calibration curve: A stand calibration curve was prepared by employing calibration concentrations of 0.002, 0.005, 0.02, 0.05, 0.1, 0.2, 1, 2 and 4 μg/ml.
10 μl each of the standard solutions prepared above was added to 100 μl of normal serum sample and diluted 10 times. 250 μl of acetonitrile was added to the resulting dilution and the mixture was centrifuged for 10 minutes to obtain a supernatant. 300 μl of the supernatant was dried by evaporation under a nitrogen atmosphere and reconstituted by adding 50 μl of methanol. 20 μl of the resulting solution was analyzed by HPLC to prepare a standard calibration curve. HPLC was performed with Shimadzu ODS2 column (4.6×250 mm, 5 μm by employing a mixture of methanol/water (90/10 (v/v)) as the mobile phase at a flow rate of 1.2 ml/min, and measuring the absorbance at 240 nm.
Extraction: 100 μl of the serum sample obtained in (4-2-1) was put into a 1 ml microtube and 10 μl of methanol was added thereto. 250 μl of acetonitrile was added to the microtube and the mixture was centrifuged for 10 minutes to obtain a supernatant. 300 μl of the supernatant was dried by evaporation under a nitrogen atmosphere and reconstituted by adding 50 μl of methanol. 20 μl of the resulting solution was analyzed by the HPLC method as above.
Average concentrations of the compounds in the serum samples were plotted in a semi-log scale against the time lapsed after the administration, and the pharmacokinetic parameters were determined as a non-compartment open model by employing WinNonlin® program (Pharsight Corporation).

SMILES: CO/C=C(/C(=O)OC)c1ccc(Cl)cc1COc1ccc(N2CCOCC2)cn1 [compound 394]
inhibition at 0.1 µM [1]: 0%
inhibition at 0.3 µM [1]: 98%
inhibition at 1 µM [1]: 100%
inhibition at 3 µM [1]: 100%
relative absorbance (MTT) relative to control (set as 100) (MG-63 cells; 0.33 μM compound): 113
relative absorbance (MTT) relative to control (set as 100) (MG-63 cells; 1 μM compound): 105
relative absorbance (MTT) relative to control (set as 100) (MG-63 cells; 3 μM compound): 110
half-life at 20 µM [2]: 55.5 ± 12 min

SMILES: CO/C=C(/C(=O)OC)c1ccccc1COc1cccc(C(OC)OC)c1 [compound 133]
Osteoclast formation inhibitory effects (%) ([1]; 0.3 μM): 16%
Osteoclast formation inhibitory effects (%) ([1]; 1.0 μM): 95%
Osteoclast formation inhibitory effects (%) ([1]; 3.0 μM): 100%
Reduction (%) of the resorption pit area of osteoclasts (osteoclasts; 0.3 uM): 75%
Reduction (%) of the resorption pit area of osteoclasts (osteoclasts; 1 uM): 99%
Reduction (%) of the resorption pit area of osteoclasts (osteoclasts; 3 uM): 100%
relative absorbance relative to that of the control (set as 100), MTT ([3]; 2 uM): 93
relative absorbance relative to that of the control (set as 100), MTT ([3]; 4 uM): 104
relative absorbance relative to that of the control (set as 100), MTT ([3]; 8 uM): 102
relative absorbance relative to that of the control (set as 100), MTT (MG-63 cells; 0.11 uM): 103
relative absorbance relative to that of the control (set as 100), MTT (MG-63 cells; 0.33 uM): 108
relative absorbance relative to that of the control (set as 100), MTT (MG-63 cells; 1 uM): 107
relative absorbance relative to that of the control (set as 100), MTT (MG-63 cells; 3 uM): 103

SMILES: CO/C=C(/C(=O)OC)c1ccccc1COc1ccc(N(C)CC(C)C)cc1F [Compound No. 426, (E)-methyl-2-[2-((4-(N-isobutyl-N-methylamino)-2-fluorophenoxy)methyl)phenyl]-3-methoxyacrylate]
inhibition at 0.1 µM [1]: 25%
inhibition at 0.3 µM [1]: 100%
inhibition at 1 µM [1]: 100%
inhibition at 3 µM [1]: 100%
half-life at 20 µM [2]: 42.7 ± 2.1 min

SMILES: CCC(C)Oc1cccc(OCc2ccccc2/C(=C\OC)C(=O)OC)c1 (centres unmarked) [compound 221]
Osteoclast formation inhibitory effects (%) ([1]; 0.3 μM): 39%
Osteoclast formation inhibitory effects (%) ([1]; 1.0 μM): 100%
Osteoclast formation inhibitory effects (%) ([1]; 3.0 μM): 100%
Reduction (%) of the resorption pit area of osteoclasts (osteoclasts; 0.3 uM): 94%
Reduction (%) of the resorption pit area of osteoclasts (osteoclasts; 1 uM): 100%
Reduction (%) of the resorption pit area of osteoclasts (osteoclasts; 3 uM): 100%
relative absorbance relative to that of the control (set as 100), MTT ([3]; 2 uM): 96
relative absorbance relative to that of the control (set as 100), MTT ([3]; 4 uM): 96
relative absorbance relative to that of the control (set as 100), MTT ([3]; 8 uM): 99

More lines, main results first:

half-life at 20 µM [2]: 43 ± 1.8 min
SMILES: CO/C=C(/C(=O)OC)c1ccccc1COc1ccc(N2CCCCC2)cc1 [compound 399]
inhibition at 0.1 µM [1]: 0%
inhibition at 0.3 µM [1]: 70%
inhibition at 1 µM [1]: 100%
inhibition at 3 µM [1]: 100%
relative absorbance (MTT) relative to control (set as 100) (MG-63 cells; 0.33 μM compound): 96
relative absorbance (MTT) relative to control (set as 100) (MG-63 cells; 1 μM compound): 76
relative absorbance (MTT) relative to control (set as 100) (MG-63 cells; 3 μM compound): 65

Half-life [2]: 45.6 min
One-hour stability [2]: 40%
SMILES: CO/C=C(/C(=O)OC)c1ccccc1COc1ccc(C2OCCCO2)cc1 [compound 161]
Osteoclast formation inhibitory effects (%) ([1]; 0.3 μM): 19%
Osteoclast formation inhibitory effects (%) ([1]; 1.0 μM): 100%
Osteoclast formation inhibitory effects (%) ([1]; 3.0 μM): 100%
Reduction (%) of the resorption pit area of osteoclasts (osteoclasts; 0.3 uM): 94%
Reduction (%) of the resorption pit area of osteoclasts (osteoclasts; 1 uM): 100%
Reduction (%) of the resorption pit area of osteoclasts (osteoclasts; 3 uM): 100%

half-life at 20 µM [2]: 43.9 min
SMILES: CO/C=C(/C(=O)OC)c1ccccc1COc1ccc(N2CCCCC2)c(F)c1 [compound 416]
inhibition at 0.1 µM [1]: 0%
inhibition at 0.3 µM [1]: 75%
inhibition at 1 µM [1]: 100%
inhibition at 3 µM [1]: 100%

half-life at 20 µM [2]: 107 ± 18.6 min
SMILES: CO/C=C(/C(=O)OC)c1ccccc1COc1cccc(N2CCN(C)CC2)c1 [compound 391]
inhibition at 0.3 µM [1]: 4%
inhibition at 1 µM [1]: 50%
inhibition at 3 µM [1]: 100%
relative absorbance (MTT) relative to control (set as 100) (MG-63 cells; 0.33 μM compound): 104
relative absorbance (MTT) relative to control (set as 100) (MG-63 cells; 1 μM compound): 99
relative absorbance (MTT) relative to control (set as 100) (MG-63 cells; 3 μM compound): 111

half-life at 20 µM [2]: 24.9 min
AUC (area under the curve of blood concentration versus time) [4]: 176.4 ± 32.9 µg·h/mL
clearance ([4]; mouse, serum, iv, read-out: CL (clearance) (converted)): 0.0317 mL/min
Half-life ([4]; mouse, serum, iv, read-out: Half-life (converted)): 647 ± 96.6 min
Vd ([4]; mouse, serum, iv, read-out: Vd (volume of distribution)): 0.027 ± 0.0012 L/kg
SMILES: CO/C=C(/C(=O)OC)c1ccccc1COc1cccc(N2CCCC2)n1 [Compound No. 415, (E)-methyl-2-[2-((6-(pyrrolidin-1-yl)pyridin-2-yloxy)-methyl)phenyl]-3-methoxyacrylate]
inhibition at 0.1 µM [1]: 5%
inhibition at 0.3 µM [1]: 57%
inhibition at 1 µM [1]: 100%
inhibition at 3 µM [1]: 100%

half-life at 20 µM [2]: 40.7 min
SMILES: CO/C=C(/C(=O)OC)c1ccc(Cl)cc1COc1cccc(N2CCOCC2)c1 [Compound No. 386, (E)-methyl-2-[2-((3-morpholinophenoxy)methyl)-4-chlorophenyl]-3-methoxyacrylate]
inhibition at 0.1 µM [1]: 100%
inhibition at 0.3 µM [1]: 100%
inhibition at 1 µM [1]: 100%
inhibition at 3 µM [1]: 100%
relative absorbance (MTT) relative to control (set as 100) (MG-63 cells; 0.33 μM compound): 101
relative absorbance (MTT) relative to control (set as 100) (MG-63 cells; 1 μM compound): 69
relative absorbance (MTT) relative to control (set as 100) (MG-63 cells; 3 μM compound): 68
